Counter-ions that a name gives are not always drawn.
Key:
human B1R receptor = target: T1, human B1R receptor (Homo sapiens, UniProt P46663); assay: Functional study on the bradykinin receptor 1 (B1R), FLIPR Ca2+ assay, hB1R cells; type: cell-based; conditions: CHO-K1, test substance 10 μM, agonist Lys-Des-Arg9-bradykinin 0.5 nM, % inhibition compared with the maximum achievable inhibition, read-out: B1R Antagonism, human [10 μM] % Inhibition
T1 construct: host or cells: CHO K1 cells (Chinese hamster ovary), stably transfected
T1 sequence (P46663 1-353): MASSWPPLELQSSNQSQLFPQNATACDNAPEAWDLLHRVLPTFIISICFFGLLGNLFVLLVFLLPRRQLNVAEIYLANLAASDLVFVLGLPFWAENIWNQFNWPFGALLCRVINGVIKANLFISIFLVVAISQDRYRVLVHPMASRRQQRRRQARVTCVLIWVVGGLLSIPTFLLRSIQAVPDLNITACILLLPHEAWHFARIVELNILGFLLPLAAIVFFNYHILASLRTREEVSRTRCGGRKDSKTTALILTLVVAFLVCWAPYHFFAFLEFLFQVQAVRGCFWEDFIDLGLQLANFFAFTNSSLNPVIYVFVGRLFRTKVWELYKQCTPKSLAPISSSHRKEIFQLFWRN
Description: (§1) The agonistic or antagonistic action of substances can be quantified on the bradykinin receptor 1 (B1R) of the species human and rat with ectopically expressing cell lines (CHO K1 cells) and with the aid of a Ca^2+-sensitive dye (Fluo-4) using a fluorescent imaging plate reader (FLIPR). The indication in % activation is based on the Ca^2+ signal after addition of Lys-Des-Arg^9-bradykinin (0.5 nM) or Des-Arg^9-bradykinin (100 nM). Antagonists result in a suppression of the Ca^2+ influx following administration of the agonist. The % inhibition in comparison with the maximum achievable inhibition is indicated.
(§2) The agonistic or antagonistic action of substances can be determined on the bradykinin receptor 1 (B1R) of the species human and rat using the following assay. According to this assay, the Ca^2+ influx through the channel is quantified with the aid of a Ca^2+-sensitive dye (type Fluo-4, Molecular Probes Europe BV, Leiden, Netherlands) using a Fluorescent Imaging Plate Reader (FLIPR, Molecular Devices, Sunnyvale, USA).
(§3) Chinese hamster ovary cells (CHO K1 cells) which have been stably transfected with the human B1R gene (hB1R cells, Euroscreen s.a., Gosselies, Belgium) or with the B1R gene of the rat (rB1R cells, Axxam, Milan, Italy) are used. For functional studies, the cells are plated out on black 96-well plates having a clear base (BD Biosciences, Heidelberg, Germany) in a density of 20,000-25,000 cells/well. The cells are incubated overnight at 37° C. and with 5% CO2 in culture medium (hB1R cells: Nutrient Mixture Ham's F12, Gibco Invitrogen GmbH, Karlsruhe, Germany; rB1R cells: D-MEM/F12, Gibco Invitrogen GmbH, Karlsruhe, Germany), with 10 vol. % FBS (fetal bovine serum, Gibco Invitrogen GmbH, Karlsruhe, Germany). On the following day, the cells are loaded for 60 minutes at 37° C. with 2.13 μM Fluo-4 (Molecular Probes Europe BV, Leiden, Netherlands) in HBSS buffer (Hank's buffered saline solution, Gibco Invitrogen GmbH, Karlsruhe, Germany) […] (Sigma-Aldrich, Taufkirchen, Germany) and 10 mM HEPES (Sigma-Aldrich, Taufkirchen, Germany). The plates are then washed twice with HBSS buffer, and HBSS buffer additionally containing 0.1% BSA (bovine serum albumin; Sigma-Aldrich, Taufkirchen, Germany), 5.6 mM glucose and 0.05% gelatin (Merck KGaA, Darmstadt, Germany) is added to the plates. After incubation for a further 20 minutes at room temperature, the plates are inserted into the FLIPR for Ca^2+ measurement. The Ca^2+-dependent fluorescence is measured before and after the addition of substances (λex=488 nm, λem=540 nm). Quantification is carried out by measuring the highest fluorescence intensity (FC, fluorescence counts) over time.
(§4) The FLIPR protocol consists of 2 substance additions. Test substances (10 μM) are first pipetted onto the cells and the Ca^2+ influx is compared with the control (hB1R: Lys-Des-Arg^9-bradykinin 0.5 nM; rB1R: Des-Arg^9-bradykinin 100 nM). This gives the activation in %, based on the Ca^2+ signal after addition of Lys-Des-Arg^9-bradykinin (0.5 nM) or Des-Arg^9-bradykinin (100 nM).
(§5) After 10 minutes' incubation, 0.5 nM Lys-Des-Arg^9-bradykinin (hB1R) or 100 nM Des-Arg^9-bradykinin (rB1R) are applied, and the influx of Ca^2+ is likewise determined. Antagonists lead to suppression of the Ca^2+ influx. The % inhibition compared with the maximum achievable inhibition is calculated.

B1R receptor of the rat = target: T2, B1R receptor of the rat (Rattus norvegicus, UniProt P97583); assay: Functional study on the bradykinin receptor 1 (B1R), FLIPR Ca2+ assay, rB1R cells; type: cell-based; conditions: CHO-K1, test substance 10 μM, agonist Des-Arg9-bradykinin 100 nM, % inhibition compared with the maximum achievable inhibition, read-out: B1R Antagonism, rat [10 μM] % Inhibition
T2 construct: host or cells: CHO K1 cells (Chinese hamster ovary), stably transfected
T2 sequence (P97583 1-337): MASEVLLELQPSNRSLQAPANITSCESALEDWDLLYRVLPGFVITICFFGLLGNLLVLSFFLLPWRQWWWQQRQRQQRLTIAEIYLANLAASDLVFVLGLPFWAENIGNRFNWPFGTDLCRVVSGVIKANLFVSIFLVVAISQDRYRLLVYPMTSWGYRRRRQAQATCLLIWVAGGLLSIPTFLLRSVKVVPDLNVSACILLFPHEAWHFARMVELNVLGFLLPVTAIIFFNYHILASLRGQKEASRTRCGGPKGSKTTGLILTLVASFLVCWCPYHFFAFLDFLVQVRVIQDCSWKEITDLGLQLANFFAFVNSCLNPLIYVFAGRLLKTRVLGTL
Description: as §1, §2, §3, §4, §5

SMILES	inhibition at 10 µM (human B1R receptor)	inhibition at 10 µM (B1R receptor of the rat)
COc1cc(C)c(S(=O)(=O)N2CCCC2COCC(=O)NCc2ccc(N(C)C)cc2)c(C)c1 (stereo not drawn) [Example 576, N-(4-(dimethylamino)benzyl)-2-((1-(4-methoxy-2,6-dimethylphenylsulfonyl)pyrrolidin-2-yl)methoxy)acetamide]	1.85%	107%
O=C(COCC1CCCCN1S(=O)(=O)c1ccc(Cl)c(Cl)c1)Nc1cccc(CN2CCCC2)c1 (stereo not drawn) [Example 293, 2-((1-(3,4-dichlorophenylsulfonyl)piperidin-2-yl)methoxy)-N-(3-(pyrrolidin-1-ylmethyl)phenyl)acetamide]	90.5%	-6.96%
COc1cc(C)c(S(=O)(=O)N2CCCCC2COCC(=O)N2CCN(C(C)C)CC2)c(C)c1 (stereo not drawn) [Example 291, 1-(4-isopropylpiperazin-1-yl)-2-((1-(4-methoxy-2,6-dimethylphenylsulfonyl)piperidin-2-yl)methoxy)ethanone]	104%	93%
COc1ccc(S(=O)(=O)N2CCCCC2CCOCC(=O)N2CCC(CCN3CCCCC3)CC2)cc1 (stereo not drawn) [Example 90, 2-(2-(1-(4-methoxyphenylsulfonyl)piperidin-2-yl)ethoxy)-1-(4-(2-(piperidin-1-yl)-ethyl)piperidin-1-yl)ethanone]	50%	99.5%
COc1ccc(N2CCN(C(=O)COCC3CCCN3S(=O)(=O)c3c(Cl)cc(Cl)cc3Cl)CC2)cc1 (stereo not drawn) [Example 328, 1-(4-(4-methoxyphenyl)piperazin-1-yl)-2-((1-(2,4,6-trichlorophenylsulfonyl)pyrrolidin-2-yl)methoxy)ethanone]	104%	102%
O=C(COCC1Cc2ccccc2CN1S(=O)(=O)c1ccc(Cl)cc1Cl)N1CCC(N2CCOCC2)CC1 (stereo not drawn) [Example 65, 2-((2-(2,4-dichlorophenylsulfonyl)-1,2,3,4-tetrahydroisoquinolin-3-yl)methoxy)-1-(4-morpholinopiperidin-1-yl)ethanone]	55.4%	93.2%
COc1cc(C)c(S(=O)(=O)N2CCCC2COCC(=O)N2CCC(N3CCN(C)CC3)CC2)c(C)c1 (stereo not drawn) [Example 267, 2-((1-(4-methoxy-2,6-dimethylphenylsulfonyl)pyrrolidin-2-yl)methoxy)-1-(4-(4-methylpiperazin-1-yl)piperidin-1-yl)ethanone]	104%	95.2%
COc1ccc(S(=O)(=O)N2c3ccccc3CC2COCC(=O)NCC2CCCN(Cc3ccccc3)C2)cc1 (stereo not drawn) [Example 422, N-((1-benzylpiperidin-3-yl)methyl)-2-((1-(4-methoxyphenylsulfonyl)indolin-2-yl)methoxy)acetamide]	48%	98.6%

Now from value to compound:

inhibition at 10 µM (human B1R receptor)	inhibition at 10 µM (B1R receptor of the rat)	SMILES
43.9%	79.9%	CN1CCC(N2CCN(C(=O)COCC3CCCCN3S(=O)(=O)c3ccc(Br)cc3)CC2)CC1 (stereo not drawn) [Example 123, 2-((1-(4-bromophenylsulfonyl)piperidin-2-yl)methoxy)-1-(4-(1-methylpiperidin-4-yl)piperazin-1-yl)ethanone]
103%	105%	O=C(COCC1CCCCN1S(=O)(=O)c1c(Cl)cccc1Cl)N1CCC(N2CCCCC2)CC1 (stereo not drawn) [Example 336, 1-(1,4′-bipiperidin-1′-yl)-2-((1-(2,6-dichlorophenylsulfonyl)piperidin-2-yl)methoxy)ethanone]
94.9%	86.4%	O=C(COCC1CCCCN1S(=O)(=O)c1ccc(Cl)c(Cl)c1)N1CCC(CCN2CCCCC2)CC1 (stereo not drawn) [Example 20, 2-((1-(3,4-dichlorophenylsulfonyl)piperidin-2-yl)methoxy)-1-(4-(2-(piperidin-1-yl)-ethyl)piperidin-1-yl)ethanone]
99.5%	99.5%	Cc1cccc(Cl)c1S(=O)(=O)N1CCC[C@H]1COCC(=O)N1CCN(C2CCN(C)CC2)CC1 [Example 162, (S)-2-((1-(2-chloro-6-methylphenylsulfonyl)pyrrolidin-2-yl)methoxy)-1-(4-(1-methylpiperidin-4-yl)piperazin-1-yl)ethanone dihydrochloride]
